Source: patent US6653300B2, “Pyrazole compounds useful as protein kinase inhibitors” (Vertex Pharmaceuticals Incorporated, priority 2000, dated 2003)

Columns and labels:
human Src kinase = target: T1, human Src kinase (Homo sapiens, UniProt P12931); experiment: SRC inhibition assay (radioactivity-based or spectrophotometric assay); format: biochemical; settings: recombinant human Src kinase; assay A or B; read-out: Ki value on SRC
T1 construct: full length recombinant human Src kinase (from Upstate Biotechnology, cat. no. 14-117); purchased Upstate Biotechnology 14-117; host or cells: baculo viral cells
Outline: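 Full-length recombinant human Src from baculovirus was used. In the radiometric format, enzyme was preincubated 10 min at 30 °C, the reaction was started with ^33P-ATP and run 20 min, then TCA-quenched and filter-counted. The alternative format monitored poly Glu-Tyr phosphorylation by NADH-coupled A340 rate. Ki came from competitive-inhibition fits.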

Aurora-2 = target: T2, Aurora-2 (Homo sapiens, UniProt O14965); experiment: Ki determination for the inhibition of Aurora-2 (coupled enzyme assay); format: biochemical; settings: 70 nM Aurora-2, 30° C.
T2 sequence (O14965 1-403): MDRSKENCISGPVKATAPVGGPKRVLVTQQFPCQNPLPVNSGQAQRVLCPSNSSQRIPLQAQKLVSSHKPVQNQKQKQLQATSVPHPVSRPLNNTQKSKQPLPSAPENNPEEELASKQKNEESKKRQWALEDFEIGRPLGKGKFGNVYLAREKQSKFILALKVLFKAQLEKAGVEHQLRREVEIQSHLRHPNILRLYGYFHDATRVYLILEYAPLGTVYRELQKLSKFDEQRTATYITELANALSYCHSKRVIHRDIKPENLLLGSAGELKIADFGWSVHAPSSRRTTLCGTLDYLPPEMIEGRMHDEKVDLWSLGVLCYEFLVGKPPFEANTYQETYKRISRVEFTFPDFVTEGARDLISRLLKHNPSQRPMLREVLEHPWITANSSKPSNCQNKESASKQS
Outline: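 Ki came from reaction rates plotted against inhibitor concentration, with rates taken as A340 decrease over 5 min at 30° C. Enzyme (70 nM final) was added after 10 min compound preincubation; stock buffer held […], 800 μM LRRASLG, PK/LDH coupling, pH 7.5.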

AKT-3 = AKT-3 (Homo sapiens, UniProt Q9Y243); experiment: AKT inhibition assay (coupled enzyme assay); format: biochemical; settings: 45 nM AKT, 170 μM ATP, 30° C.
Experimental: Compounds were screened for their ability to inhibit AKT using a standard coupled enzyme assay (Fox et al., Protein Sci., (1998) 7, 2249). Assays were carried out in a mixture of 100 mM HEPES 7.5, 10 mM MgCl2, 25 mM NaCl, 1 mM DTT and 1.5% DMSO. Final substrate concentrations in the assay were 170 μM ATP (Sigma Chemicals) and 200 μM peptide (RPRAATF, American Peptide, Sunnyvale, Calif.). Assays were carried out at 30° C. and 45 nM AKT. Final concentrations of the components of the coupled enzyme system were 2.5 mM phosphoenolpyruvate, 300 μM NADH, 30 μg/ML pyruvate kinase and 10 μg/ml lactate dehydrogenase.
An assay stock buffer solution was prepared containing all of the reagents listed above, with the exception of AKT, DTT, and the test compound of interest. 56 μl of the stock solution was placed in a 384 well plate followed by addition of 1 μl of 2 mM DMSO stock containing the test compound (final compound concentration 30 μM). The plate was preincubated for about 10 minutes at 30° C. and the reaction initiated by addition of 10 μl of enzyme (final concentration 45 nM) and 1 mM DTT. Rates of reaction were obtained using a BioRad Ultramark plate reader (Hercules, Calif.) over a 5 minute read time at 30° C.

Chain of AKT-3 (Q9Y243 whole entry, species assumed): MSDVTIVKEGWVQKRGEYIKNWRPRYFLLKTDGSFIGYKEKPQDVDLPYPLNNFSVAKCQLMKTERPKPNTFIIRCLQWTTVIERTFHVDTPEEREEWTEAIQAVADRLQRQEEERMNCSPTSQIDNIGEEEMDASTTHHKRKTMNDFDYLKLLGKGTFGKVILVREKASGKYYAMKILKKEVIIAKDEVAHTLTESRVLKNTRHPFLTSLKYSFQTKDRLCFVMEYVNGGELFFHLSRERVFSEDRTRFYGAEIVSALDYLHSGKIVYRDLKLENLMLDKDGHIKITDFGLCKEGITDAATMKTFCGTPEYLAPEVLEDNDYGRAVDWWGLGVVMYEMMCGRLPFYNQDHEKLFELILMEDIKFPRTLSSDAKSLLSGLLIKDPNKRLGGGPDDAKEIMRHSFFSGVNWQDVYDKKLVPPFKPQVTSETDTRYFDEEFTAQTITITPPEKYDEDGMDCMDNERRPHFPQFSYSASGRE
T1 sequence (P12931 whole entry): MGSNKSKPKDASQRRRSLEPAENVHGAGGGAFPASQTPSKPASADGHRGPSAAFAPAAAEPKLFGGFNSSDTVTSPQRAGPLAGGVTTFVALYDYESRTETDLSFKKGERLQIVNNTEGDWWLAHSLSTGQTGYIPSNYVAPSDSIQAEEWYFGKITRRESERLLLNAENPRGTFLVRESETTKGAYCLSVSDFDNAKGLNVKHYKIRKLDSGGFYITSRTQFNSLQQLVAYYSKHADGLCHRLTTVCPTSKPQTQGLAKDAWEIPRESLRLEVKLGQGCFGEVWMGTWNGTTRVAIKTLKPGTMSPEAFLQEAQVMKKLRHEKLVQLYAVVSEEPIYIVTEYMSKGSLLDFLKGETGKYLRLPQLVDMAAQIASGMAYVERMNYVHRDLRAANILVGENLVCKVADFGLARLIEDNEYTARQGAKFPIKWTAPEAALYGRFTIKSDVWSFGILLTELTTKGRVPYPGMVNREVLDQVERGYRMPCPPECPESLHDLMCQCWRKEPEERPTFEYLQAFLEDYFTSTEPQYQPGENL

In the case of c1ccc2c(Nc3cc(C4CC4)[nH]n3)nc(Nc3ccc4ncsc4c3)nc2c1 [IIc-32, [2-(Benzothiazol-6-ylamino)-quinazolin-4-yl]-(5-cyclopropyl-2H-pyrazol-3-yl)-amine], the Ki (human Src kinase) is reported as under 100 nM, the Ki (Aurora-2) is reported as under 100 nM and the Ki (AKT-3) is reported as 1000 to 20000 nM. For the same compound, the melting point was 255 to 256 °C.
